Experiments:
[1] = biological target: T1, cloned human or rodent CNS receptors, channels, and transporters (PDSP panel) (Homo sapiens, UniProt P25100); test: PDSP GPCR panel primary binding assays at 10 μM; settings: Alpha1D, primary assay; for Mean %: mean inhibition; for Inhibition 1: replicate 1; for Inhibition 2: replicate 2; for Inhibition 3: replicate 3; for Inhibition 4: replicate 4
T1 construct: expressed in transfected cells
T1 sequence (P25100 1-572): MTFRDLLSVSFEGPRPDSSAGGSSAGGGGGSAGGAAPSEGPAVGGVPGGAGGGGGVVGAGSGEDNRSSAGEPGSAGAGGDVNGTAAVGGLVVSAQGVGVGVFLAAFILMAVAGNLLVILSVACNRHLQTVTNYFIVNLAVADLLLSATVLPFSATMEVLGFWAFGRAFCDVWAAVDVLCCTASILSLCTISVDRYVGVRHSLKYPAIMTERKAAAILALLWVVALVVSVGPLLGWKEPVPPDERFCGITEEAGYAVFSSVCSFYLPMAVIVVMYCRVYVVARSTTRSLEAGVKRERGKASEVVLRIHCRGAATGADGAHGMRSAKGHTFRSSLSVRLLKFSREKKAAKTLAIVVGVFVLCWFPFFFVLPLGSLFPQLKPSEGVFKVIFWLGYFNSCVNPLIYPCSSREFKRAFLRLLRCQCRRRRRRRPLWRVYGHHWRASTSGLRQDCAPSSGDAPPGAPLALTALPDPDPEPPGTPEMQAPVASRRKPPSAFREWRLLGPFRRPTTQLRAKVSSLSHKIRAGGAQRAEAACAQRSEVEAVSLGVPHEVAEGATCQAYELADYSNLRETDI
Protocol: (§1) GPCR panel: Screening against the receptors within the PDSP panel offers an assessment of off-target pharmacological activity at cloned human or rodent CNS receptors, channels, and transporters that could confound CNS-related phenotypes. A total of 46–47 primary binding assays were run in quadruplicate on these compounds at 10 μM, with follow-up secondary binding assays in 11-point dose-response in triplicate for select compounds versus select receptors. Secondary binding assays were executed for all receptors where test compound displaced an average of >50% of radio-labeled standard ligand. As an exception, no secondary assays were carried out for H3, PBR, or GABAA. […]

[2] = biological target: T2, cloned human or rodent CNS receptors, channels, and transporters (PDSP panel) (Homo sapiens, UniProt P25021); test: PDSP GPCR panel primary binding assays at 10 μM; settings: H2, primary assay; for Mean %: mean inhibition; for Inhibition 1: replicate 1; for Inhibition 2: replicate 2; for Inhibition 3: replicate 3; for Inhibition 4: replicate 4
T2 construct: expressed in transfected cells
T2 sequence (P25021 whole entry): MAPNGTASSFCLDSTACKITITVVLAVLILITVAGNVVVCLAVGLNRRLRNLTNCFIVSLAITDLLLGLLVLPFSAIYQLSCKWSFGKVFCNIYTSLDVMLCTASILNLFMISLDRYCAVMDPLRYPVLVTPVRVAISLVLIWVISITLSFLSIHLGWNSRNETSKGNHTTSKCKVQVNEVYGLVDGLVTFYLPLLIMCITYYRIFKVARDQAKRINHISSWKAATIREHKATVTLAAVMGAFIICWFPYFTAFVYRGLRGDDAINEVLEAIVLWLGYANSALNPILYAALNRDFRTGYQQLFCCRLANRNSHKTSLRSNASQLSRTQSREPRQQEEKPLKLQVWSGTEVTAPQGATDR
Protocol: as §1

[3] = biological target: T3, cloned human or rodent CNS receptors, channels, and transporters (PDSP panel) (Homo sapiens, UniProt P28566); test: PDSP GPCR panel primary binding assays at 10 μM; settings: 5-HT1E, primary assay; for Mean %: mean inhibition; for Inhibition 1: replicate 1; for Inhibition 2: replicate 2; for Inhibition 3: replicate 3; for Inhibition 4: replicate 4
T3 construct: expressed in transfected cells
T3 sequence (P28566 whole entry): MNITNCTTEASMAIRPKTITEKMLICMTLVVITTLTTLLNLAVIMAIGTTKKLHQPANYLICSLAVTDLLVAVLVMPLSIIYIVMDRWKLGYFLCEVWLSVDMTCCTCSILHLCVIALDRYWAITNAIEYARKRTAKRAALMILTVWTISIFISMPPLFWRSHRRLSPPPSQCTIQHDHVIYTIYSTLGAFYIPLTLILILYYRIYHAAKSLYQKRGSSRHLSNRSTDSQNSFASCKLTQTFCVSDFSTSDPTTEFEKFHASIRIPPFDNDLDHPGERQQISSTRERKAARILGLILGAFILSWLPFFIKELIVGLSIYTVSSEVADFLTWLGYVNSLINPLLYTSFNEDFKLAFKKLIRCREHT
Protocol: as §1

[4] = biological target: T4, cloned human or rodent CNS receptors, channels, and transporters (PDSP panel) (Homo sapiens, UniProt P34969); test: PDSP GPCR panel primary binding assays at 10 μM; settings: 5-HT7A, primary assay; for Mean %: mean inhibition; for Inhibition 1: replicate 1; for Inhibition 2: replicate 2; for Inhibition 3: replicate 3; for Inhibition 4: replicate 4
T4 construct: expressed in transfected cells
T4 sequence (P34969 whole entry): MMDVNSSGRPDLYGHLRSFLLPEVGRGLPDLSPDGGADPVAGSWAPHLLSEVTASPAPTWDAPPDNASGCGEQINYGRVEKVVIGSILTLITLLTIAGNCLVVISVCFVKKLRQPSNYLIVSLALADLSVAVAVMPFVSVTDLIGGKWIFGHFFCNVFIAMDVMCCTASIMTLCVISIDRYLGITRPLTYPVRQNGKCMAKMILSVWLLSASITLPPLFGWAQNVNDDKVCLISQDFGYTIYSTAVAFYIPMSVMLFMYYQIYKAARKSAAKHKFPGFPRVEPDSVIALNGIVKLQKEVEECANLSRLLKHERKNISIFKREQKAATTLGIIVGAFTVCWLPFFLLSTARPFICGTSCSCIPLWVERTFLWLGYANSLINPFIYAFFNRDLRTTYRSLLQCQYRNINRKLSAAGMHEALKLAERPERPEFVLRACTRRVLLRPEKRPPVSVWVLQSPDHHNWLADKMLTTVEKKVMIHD
Protocol: as §1

[5] = biological target: T5, cloned human or rodent CNS receptors, channels, and transporters (PDSP panel) (Homo sapiens, UniProt P20309); test: PDSP GPCR panel primary binding assays at 10 μM; settings: M3, primary assay; for Mean %: mean inhibition; for Inhibition 1: replicate 1; for Inhibition 2: replicate 2; for Inhibition 3: replicate 3; for Inhibition 4: replicate 4
T5 construct: expressed in transfected cells
T5 sequence (P20309 whole entry): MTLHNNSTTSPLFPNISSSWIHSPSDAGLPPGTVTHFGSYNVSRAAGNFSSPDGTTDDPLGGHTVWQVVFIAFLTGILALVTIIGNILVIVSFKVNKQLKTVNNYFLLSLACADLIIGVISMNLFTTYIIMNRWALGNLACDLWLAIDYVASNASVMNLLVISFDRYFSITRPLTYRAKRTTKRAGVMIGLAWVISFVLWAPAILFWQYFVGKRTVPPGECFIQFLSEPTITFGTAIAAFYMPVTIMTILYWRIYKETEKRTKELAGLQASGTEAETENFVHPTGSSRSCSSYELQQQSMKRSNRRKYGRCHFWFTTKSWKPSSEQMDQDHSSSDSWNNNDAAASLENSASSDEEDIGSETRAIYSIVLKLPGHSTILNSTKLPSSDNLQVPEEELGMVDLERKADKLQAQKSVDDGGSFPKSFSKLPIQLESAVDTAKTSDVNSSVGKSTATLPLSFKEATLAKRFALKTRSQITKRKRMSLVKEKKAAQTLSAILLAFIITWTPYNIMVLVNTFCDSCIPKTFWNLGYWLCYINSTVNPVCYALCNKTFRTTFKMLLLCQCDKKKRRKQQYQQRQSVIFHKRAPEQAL
Protocol: as §1

[6] = biological target: T6, cloned human or rodent CNS receptors, channels, and transporters (PDSP panel) (Homo sapiens, UniProt P35372); test: PDSP GPCR panel primary binding assays at 10 μM; settings: MOR, primary assay; for Mean %: mean inhibition; for Inhibition 1: replicate 1; for Inhibition 2: replicate 2; for Inhibition 3: replicate 3; for Inhibition 4: replicate 4
T6 construct: expressed in transfected cells
T6 sequence (P35372 whole entry): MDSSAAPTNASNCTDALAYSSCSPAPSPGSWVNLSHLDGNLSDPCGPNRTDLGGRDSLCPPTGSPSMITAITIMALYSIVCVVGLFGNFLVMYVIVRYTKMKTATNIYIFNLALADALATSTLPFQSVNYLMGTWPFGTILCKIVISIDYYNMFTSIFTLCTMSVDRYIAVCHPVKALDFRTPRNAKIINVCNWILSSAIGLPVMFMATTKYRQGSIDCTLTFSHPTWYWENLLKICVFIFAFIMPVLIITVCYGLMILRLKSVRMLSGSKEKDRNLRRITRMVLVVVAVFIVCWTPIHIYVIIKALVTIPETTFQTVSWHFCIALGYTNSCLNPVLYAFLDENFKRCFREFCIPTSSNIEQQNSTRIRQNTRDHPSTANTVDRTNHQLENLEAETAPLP
Protocol: as §1

[7] = biological target: T7, cloned human or rodent CNS receptors, channels, and transporters (PDSP panel) (Homo sapiens, UniProt P35368); test: PDSP GPCR panel primary binding assays at 10 μM; settings: Alpha1B, primary assay; for Mean %: mean inhibition; for Inhibition 1: replicate 1; for Inhibition 2: replicate 2; for Inhibition 3: replicate 3; for Inhibition 4: replicate 4
T7 construct: expressed in transfected cells
T7 sequence (P35368 1-520): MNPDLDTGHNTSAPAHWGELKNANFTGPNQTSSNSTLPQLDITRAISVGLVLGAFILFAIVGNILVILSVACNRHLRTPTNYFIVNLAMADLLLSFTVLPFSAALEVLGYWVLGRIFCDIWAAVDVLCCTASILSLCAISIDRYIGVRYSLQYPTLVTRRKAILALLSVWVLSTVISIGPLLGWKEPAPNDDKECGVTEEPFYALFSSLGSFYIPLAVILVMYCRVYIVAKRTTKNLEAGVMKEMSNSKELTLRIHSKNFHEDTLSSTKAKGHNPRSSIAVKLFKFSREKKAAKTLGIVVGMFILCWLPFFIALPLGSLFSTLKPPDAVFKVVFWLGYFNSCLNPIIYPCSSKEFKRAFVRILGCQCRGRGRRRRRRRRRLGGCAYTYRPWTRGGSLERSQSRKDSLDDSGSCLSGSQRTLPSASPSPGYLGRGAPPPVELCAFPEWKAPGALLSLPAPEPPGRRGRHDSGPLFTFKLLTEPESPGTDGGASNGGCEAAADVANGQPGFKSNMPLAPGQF
Protocol: as §1

[8] = test system: cellular system; set-up: method as in column References for potency and dosing (the 5th table c13); settings: published data; References for potency and dosing; cited from earlier work
[9] = Snapshot IV PK in CD1 mice; type: in vivo
Protocol: PK data: For snapshot PK studies, pooled plasma was analyzed at 0.5h, 1h, 2h, and 4h following
a single IV dose (3 mg/kg) in CD1 mice (2 mice per cohort) for each compound (Table 2). […]

## O=C(NC1CC1)C(=O)C(Cc1ccccc1)NC(=O)[C@H]1CCC(=O)N1Cc1ccccc1 (some centres unmarked) [UNC10302676A, ABT-957 (Alicapistat)]
[1]
  Mean %: -2.1%
  Inhibition 1: 4.8%
  Inhibition 2: -9.7%
  Inhibition 3: -4.72%
  Inhibition 4: 1.24%
[2]
  Mean %: 2.47%
  Inhibition 1: -6.09%
  Inhibition 2: 2.81%
  Inhibition 3: -1.92%
  Inhibition 4: 15.07%
[3]
  Mean %: -4.73%
  Inhibition 1: 3.28%
  Inhibition 2: -0.45%
  Inhibition 3: -9.69%
  Inhibition 4: -12.07%
[4]
  Mean %: 15.15%
  Inhibition 1: 8.6%
  Inhibition 2: 21.46%
  Inhibition 3: 9.06%
  Inhibition 4: 21.46%
[5]
  Mean %: -7.1%
  Inhibition 1: 3.98%
  Inhibition 2: -16.69%
  Inhibition 3: -10.47%
  Inhibition 4: -5.21%
[6]
  Mean %: 7.04%
  Inhibition 1: 10.32%
  Inhibition 2: 13.58%
  Inhibition 3: -4.06%
  Inhibition 4: 8.3%
[7]
  Mean %: -8.47%
  Inhibition 1: -8.91%
  Inhibition 2: -13.01%
  Inhibition 3: -14.75%
  Inhibition 4: 2.78%
[8]
  Reported as cell active (<10 μM): Y (Published data supports that the compound is active in a cellular system when dosed at 10 μM (Y/N))

## CC(=O)N1CCC(NC(=O)NC23CC4CC(CC(C4)C2)C3)CC1 [UNC10302683A, AR9281]
[9]; CD1, mouse, plasma, iv, 3 mg/kg
  clearance: 93 mL/min/kg
[9]; CD1, plasma, mouse, 3.0 mg/kg
  Cmax: 1830 ng/mL
  half-life: 14.4 min
[9]; CD1, plasma, mouse, 3.0 mg/kg, read-out: Vss
  Vd: 0.47 L/kg
[9]; mouse, 3.0 mg/kg
  CL: 93.1 mL/min/kg
[1]
  Mean %: -8.81%
  Inhibition 1: 7.07%
  Inhibition 2: -12.11%
  Inhibition 3: -12.82%
  Inhibition 4: -17.37%
[2]
  Mean %: -19%
  Inhibition 1: 4.92%
  Inhibition 2: -11.17%
  Inhibition 3: -32.29%
  Inhibition 4: -37.45%
[3]
  Mean %: -2.2%
  Inhibition 1: 8.11%
  Inhibition 2: -12.87%
  Inhibition 3: -6.96%
  Inhibition 4: 2.94%
[4]
  Mean %: 20.3%
  Inhibition 1: 4.73%
  Inhibition 2: 29.98%
  Inhibition 3: 12.78%
  Inhibition 4: 33.7%
[5]
  Mean %: -3.62%
  Inhibition 1: -3%
  Inhibition 2: -3.76%
  Inhibition 3: 2.67%
  Inhibition 4: -10.4%
[6]
  Mean %: 5.26%
  Inhibition 1: 2.55%
  Inhibition 2: 12.43%
  Inhibition 3: 4.76%
  Inhibition 4: 1.31%
[7]
  Mean %: 5.33%
  Inhibition 1: 32.86%
  Inhibition 2: -1.86%
  Inhibition 3: 1.69%
  Inhibition 4: -11.37%
[8]
  Reported as cell active (<10 μM): Y (Published data supports that the compound is active in a cellular system when dosed at 10 μM (Y/N))

Source: PMC9005681, “Use of AD Informer Set compounds to explore validity of novel targets in Alzheimer's disease pathology” (Alzheimer's & Dementia : Translational Research & Clinical …, 2022)
